{
  "source": "the kinase profiling compilation of Christmann-Franck et al. (2016)",
  "experiment_in_all_cases": "KINOMEscan competition binding",
  "conditions_in_all_cases": "compound 2.0 µM",
  "key": {"AURKA (human)": {"biological_target": "AURKA (human) (UniProt O14965)"}, "MKNK1 (human)": {"biological_target": "MKNK1 (human) (UniProt Q9BUB5)", "sequence (Q9BUB5 whole entry, looked up)": "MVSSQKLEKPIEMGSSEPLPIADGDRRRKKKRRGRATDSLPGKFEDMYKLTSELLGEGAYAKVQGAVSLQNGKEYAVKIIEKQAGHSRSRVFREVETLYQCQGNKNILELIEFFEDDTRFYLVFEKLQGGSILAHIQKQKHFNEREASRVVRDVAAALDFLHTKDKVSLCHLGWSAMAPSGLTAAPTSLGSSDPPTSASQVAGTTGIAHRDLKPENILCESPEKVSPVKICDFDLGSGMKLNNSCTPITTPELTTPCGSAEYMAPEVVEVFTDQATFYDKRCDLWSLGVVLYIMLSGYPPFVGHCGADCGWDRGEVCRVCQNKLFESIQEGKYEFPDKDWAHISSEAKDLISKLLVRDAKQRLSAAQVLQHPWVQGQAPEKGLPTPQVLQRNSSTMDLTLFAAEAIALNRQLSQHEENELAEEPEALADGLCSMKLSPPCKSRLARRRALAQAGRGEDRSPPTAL"}, "CDK14 (human)": {"biological_target": "CDK14 (human) (UniProt O94921)"}, "PRPF4B (human)": {"biological_target": "PRPF4B (human) (UniProt Q13523)"}, "TESK1 (human)": {"biological_target": "TESK1 (human) (UniProt Q15569)"}, "DYRK1B (human)": {"biological_target": "DYRK1B (human) (UniProt Q9Y463)"}, "GRK1 (human)": {"biological_target": "GRK1 (human) (UniProt Q15835)"}, "[1]": {"test_system": "RET (human), P07949 [V804M]"}, "PIK3C2B (human)": {"biological_target": "PIK3C2B (human) (UniProt O00750)"}, "WEE2 (human)": {"biological_target": "WEE2 (human) (UniProt P0C1S8)"}, "MAPK14 (human)": {"biological_target": "MAPK14 (human) (UniProt Q16539)"}, "DDR2 (human)": {"biological_target": "DDR2 (human) (UniProt Q16832)"}, "BMP2K (human)": {"biological_target": "BMP2K (human) (UniProt Q9NSY1)"}, "MET (human)": {"biological_target": "MET (human) (UniProt P08581)"}, "[2]": {"test_system": "EGFR (human), P00533 [L858R]"}, "ACVRL1 (human)": {"biological_target": "ACVRL1 (human) (UniProt P37023)"}, "ROCK1 (human)": {"biological_target": "ROCK1 (human) (UniProt Q13464)"}, "EIF2AK2 (human)": {"biological_target": "EIF2AK2 (human) (UniProt P19525)"}, "LATS2 (human)": {"biological_target": "LATS2 (human) (UniProt Q9NRM7)", "sequence (Q9NRM7 whole entry, looked up)": "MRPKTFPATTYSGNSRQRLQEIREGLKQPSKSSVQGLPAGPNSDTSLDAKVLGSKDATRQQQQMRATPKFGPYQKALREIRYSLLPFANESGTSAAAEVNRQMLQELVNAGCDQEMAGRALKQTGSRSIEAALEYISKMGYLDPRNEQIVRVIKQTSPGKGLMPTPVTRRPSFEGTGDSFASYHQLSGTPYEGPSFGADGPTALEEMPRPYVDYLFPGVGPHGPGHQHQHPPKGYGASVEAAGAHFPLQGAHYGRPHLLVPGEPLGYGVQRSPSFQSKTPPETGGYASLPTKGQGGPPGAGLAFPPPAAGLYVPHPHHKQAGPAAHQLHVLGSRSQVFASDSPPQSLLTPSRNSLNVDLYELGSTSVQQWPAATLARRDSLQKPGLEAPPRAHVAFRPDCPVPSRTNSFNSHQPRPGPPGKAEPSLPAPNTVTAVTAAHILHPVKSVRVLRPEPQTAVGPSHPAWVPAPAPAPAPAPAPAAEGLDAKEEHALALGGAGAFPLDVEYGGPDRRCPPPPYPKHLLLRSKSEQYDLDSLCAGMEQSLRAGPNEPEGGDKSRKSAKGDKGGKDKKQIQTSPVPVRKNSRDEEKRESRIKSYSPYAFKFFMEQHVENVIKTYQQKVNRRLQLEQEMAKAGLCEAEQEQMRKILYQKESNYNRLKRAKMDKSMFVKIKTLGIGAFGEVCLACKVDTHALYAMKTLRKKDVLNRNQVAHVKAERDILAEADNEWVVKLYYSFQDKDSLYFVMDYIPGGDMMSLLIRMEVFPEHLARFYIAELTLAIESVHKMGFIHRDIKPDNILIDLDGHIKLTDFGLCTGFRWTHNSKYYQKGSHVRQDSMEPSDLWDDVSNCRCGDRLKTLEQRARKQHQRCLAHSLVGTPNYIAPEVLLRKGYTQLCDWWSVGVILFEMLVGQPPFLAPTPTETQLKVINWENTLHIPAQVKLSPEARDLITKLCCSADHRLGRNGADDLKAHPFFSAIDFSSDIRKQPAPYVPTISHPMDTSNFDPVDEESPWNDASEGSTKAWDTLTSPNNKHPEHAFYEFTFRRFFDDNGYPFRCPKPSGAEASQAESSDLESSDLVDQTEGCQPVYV"}, "CDK19 (human)": {"biological_target": "CDK19 (human) (UniProt Q9BWU1)", "sequence (Q9BWU1 whole entry, looked up)": "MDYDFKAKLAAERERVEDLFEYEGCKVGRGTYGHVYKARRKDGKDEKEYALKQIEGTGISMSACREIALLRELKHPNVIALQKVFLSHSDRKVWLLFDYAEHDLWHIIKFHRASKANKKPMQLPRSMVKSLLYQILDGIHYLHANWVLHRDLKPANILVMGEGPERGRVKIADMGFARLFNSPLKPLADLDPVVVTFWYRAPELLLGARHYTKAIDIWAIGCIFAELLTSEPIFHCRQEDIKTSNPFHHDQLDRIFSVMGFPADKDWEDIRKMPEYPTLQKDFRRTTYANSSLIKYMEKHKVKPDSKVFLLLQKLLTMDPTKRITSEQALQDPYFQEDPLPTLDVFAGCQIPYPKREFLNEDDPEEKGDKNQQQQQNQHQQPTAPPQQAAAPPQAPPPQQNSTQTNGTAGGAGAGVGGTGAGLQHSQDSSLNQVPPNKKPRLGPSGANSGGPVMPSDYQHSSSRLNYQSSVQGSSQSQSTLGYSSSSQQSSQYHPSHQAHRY"}, "PTK2 (human)": {"biological_target": "PTK2 (human) (UniProt Q05397)"}, "INSRR (human)": {"biological_target": "INSRR (human) (UniProt P14616)", "sequence (P14616 whole entry, looked up)": "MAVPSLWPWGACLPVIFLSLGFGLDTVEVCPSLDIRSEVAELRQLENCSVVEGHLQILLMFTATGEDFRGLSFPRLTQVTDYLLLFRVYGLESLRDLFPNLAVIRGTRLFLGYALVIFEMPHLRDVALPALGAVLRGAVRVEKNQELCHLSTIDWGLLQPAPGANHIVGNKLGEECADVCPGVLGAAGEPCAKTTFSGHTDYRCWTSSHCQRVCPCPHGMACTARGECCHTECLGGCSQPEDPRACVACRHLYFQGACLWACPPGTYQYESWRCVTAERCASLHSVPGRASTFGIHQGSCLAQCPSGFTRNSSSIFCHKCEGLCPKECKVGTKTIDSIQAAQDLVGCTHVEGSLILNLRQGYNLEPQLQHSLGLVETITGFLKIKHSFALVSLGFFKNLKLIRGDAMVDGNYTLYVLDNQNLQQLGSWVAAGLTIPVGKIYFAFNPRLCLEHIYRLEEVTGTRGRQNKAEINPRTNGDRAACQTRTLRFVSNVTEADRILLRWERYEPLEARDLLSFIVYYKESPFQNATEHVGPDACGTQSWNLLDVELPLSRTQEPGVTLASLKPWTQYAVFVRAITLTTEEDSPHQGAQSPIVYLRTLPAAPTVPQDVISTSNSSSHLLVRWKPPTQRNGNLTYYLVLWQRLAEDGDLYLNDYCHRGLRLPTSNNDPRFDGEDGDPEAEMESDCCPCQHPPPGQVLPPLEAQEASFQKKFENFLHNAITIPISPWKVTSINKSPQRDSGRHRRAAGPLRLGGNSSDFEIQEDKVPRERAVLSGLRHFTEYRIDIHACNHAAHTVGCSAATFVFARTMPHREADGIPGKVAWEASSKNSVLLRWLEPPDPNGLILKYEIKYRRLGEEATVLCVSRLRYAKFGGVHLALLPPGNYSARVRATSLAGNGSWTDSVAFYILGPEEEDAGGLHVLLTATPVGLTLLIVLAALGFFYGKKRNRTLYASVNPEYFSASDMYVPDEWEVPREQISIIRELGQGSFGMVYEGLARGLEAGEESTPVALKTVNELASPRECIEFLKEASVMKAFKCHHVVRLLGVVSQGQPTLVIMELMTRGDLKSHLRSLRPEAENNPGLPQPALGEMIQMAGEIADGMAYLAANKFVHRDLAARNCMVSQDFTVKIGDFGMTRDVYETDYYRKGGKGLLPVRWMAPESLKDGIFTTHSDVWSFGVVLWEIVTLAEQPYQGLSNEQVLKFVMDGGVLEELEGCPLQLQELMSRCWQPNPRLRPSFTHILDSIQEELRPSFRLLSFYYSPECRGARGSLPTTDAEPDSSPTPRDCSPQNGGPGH"}, "WEE1 (human)": {"biological_target": "WEE1 (human) (UniProt P30291)"}, "MAPK9 (human)": {"biological_target": "MAPK9 (human) (UniProt P45984)"}, "PRKCD (human)": {"biological_target": "PRKCD (human) (UniProt Q05655)", "sequence (Q05655 whole entry, looked up)": "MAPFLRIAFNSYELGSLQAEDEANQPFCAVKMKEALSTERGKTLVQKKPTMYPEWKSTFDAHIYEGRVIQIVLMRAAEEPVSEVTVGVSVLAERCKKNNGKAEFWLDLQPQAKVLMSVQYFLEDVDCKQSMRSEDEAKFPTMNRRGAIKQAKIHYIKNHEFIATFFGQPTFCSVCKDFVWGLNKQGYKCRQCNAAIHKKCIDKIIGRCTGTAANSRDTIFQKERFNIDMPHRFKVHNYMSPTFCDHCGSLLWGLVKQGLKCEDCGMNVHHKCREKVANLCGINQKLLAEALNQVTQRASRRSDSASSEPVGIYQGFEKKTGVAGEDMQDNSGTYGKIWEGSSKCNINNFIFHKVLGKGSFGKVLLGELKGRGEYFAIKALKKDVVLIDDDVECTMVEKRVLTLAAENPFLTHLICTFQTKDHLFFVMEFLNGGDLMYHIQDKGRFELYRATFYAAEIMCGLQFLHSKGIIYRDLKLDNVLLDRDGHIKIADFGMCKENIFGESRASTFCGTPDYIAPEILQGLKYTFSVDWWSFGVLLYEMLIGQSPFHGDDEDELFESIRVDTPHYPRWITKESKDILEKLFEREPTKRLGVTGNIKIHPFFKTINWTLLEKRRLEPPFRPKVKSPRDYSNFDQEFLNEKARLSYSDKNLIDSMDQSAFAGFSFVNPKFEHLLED"}, "[3]": {"test_system": "KIT (human), P10721 [V559D/V654A]"}, "[4]": {"test_system": "KIT (human), P10721 [V559D/T670I]"}, "MAPK12 (human)": {"biological_target": "MAPK12 (human) (UniProt P53778)"}, "MAP3K13 (human)": {"biological_target": "MAP3K13 (human) (UniProt O43283)"}, "RPS6KA1 KD2 (human)": {"biological_target": "RPS6KA1 KD2 (human) (UniProt Q15418)"}, "IKBKE (human)": {"biological_target": "IKBKE (human) (UniProt Q14164)"}, "PAK3 (human)": {"biological_target": "PAK3 (human) (UniProt O75914)"}, "SIK1 (human)": {"biological_target": "SIK1 (human) (UniProt P57059)"}, "CDK18 (human)": {"biological_target": "CDK18 (human) (UniProt Q07002)"}, "PLK3 (human)": {"biological_target": "PLK3 (human) (UniProt Q9H4B4)"}, "CASK (human)": {"biological_target": "CASK (human) (UniProt O14936)"}, "STK33 (human)": {"biological_target": "STK33 (human) (UniProt Q9BYT3)"}, "PKMYT1 (human)": {"biological_target": "PKMYT1 (human) (UniProt Q99640)"}, "CDC42BPG (human)": {"biological_target": "CDC42BPG (human) (UniProt Q6DT37)"}, "CAMK1G (human)": {"biological_target": "CAMK1G (human) (UniProt Q96NX5)"}, "RPS6KA2 KD2 (human)": {"biological_target": "RPS6KA2 KD2 (human) (UniProt Q15349)", "sequence (Q15349 whole entry, looked up)": "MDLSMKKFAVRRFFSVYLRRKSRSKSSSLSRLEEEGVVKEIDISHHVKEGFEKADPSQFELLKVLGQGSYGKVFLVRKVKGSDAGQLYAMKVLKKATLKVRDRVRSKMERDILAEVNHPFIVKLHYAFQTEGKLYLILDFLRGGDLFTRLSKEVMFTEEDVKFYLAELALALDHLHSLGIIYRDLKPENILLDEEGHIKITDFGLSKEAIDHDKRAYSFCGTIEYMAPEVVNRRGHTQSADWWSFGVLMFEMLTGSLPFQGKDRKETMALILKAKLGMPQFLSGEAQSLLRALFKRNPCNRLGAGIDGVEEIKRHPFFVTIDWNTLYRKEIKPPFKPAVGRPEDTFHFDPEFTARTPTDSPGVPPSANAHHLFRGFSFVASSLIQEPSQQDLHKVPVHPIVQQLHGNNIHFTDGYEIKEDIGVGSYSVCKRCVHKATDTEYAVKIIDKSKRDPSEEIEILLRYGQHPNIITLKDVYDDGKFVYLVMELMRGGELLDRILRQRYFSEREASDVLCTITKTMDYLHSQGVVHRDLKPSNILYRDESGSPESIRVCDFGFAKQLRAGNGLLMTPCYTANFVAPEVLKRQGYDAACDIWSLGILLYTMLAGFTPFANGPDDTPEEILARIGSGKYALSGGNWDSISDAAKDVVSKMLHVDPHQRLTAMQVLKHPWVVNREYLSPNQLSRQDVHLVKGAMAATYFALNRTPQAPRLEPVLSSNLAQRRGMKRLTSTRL"}, "ROS1 (human)": {"biological_target": "ROS1 (human) (UniProt P08922)"}, "CDKL5 (human)": {"biological_target": "CDKL5 (human) (UniProt O76039)"}},
  "data": [
    {"smiles": "N#Cc1ccc2ncnc(NCCc3ccc4ccccc4c3)c2c1", "values": [
      {"measurement": "kinase still bound, per cent of control", "setting": "AURKA (human)", "value": 94, "unit": "%"},
      {"measurement": "kinase still bound, per cent of control", "setting": "MKNK1 (human)", "value": 64, "unit": "%"},
      {"measurement": "kinase still bound, per cent of control", "setting": "CDK14 (human)", "value": 100, "unit": "%"},
      {"measurement": "kinase still bound, per cent of control", "setting": "PRPF4B (human)", "value": 100, "unit": "%"},
      {"measurement": "kinase still bound, per cent of control", "setting": "TESK1 (human)", "value": 100, "unit": "%"},
      {"measurement": "kinase still bound, per cent of control", "setting": "DYRK1B (human)", "value": 96, "unit": "%"},
      {"measurement": "kinase still bound, per cent of control", "setting": "GRK1 (human)", "value": 100, "unit": "%"},
      {"measurement": "kinase still bound, per cent of control", "setting": "[1]", "value": 100, "unit": "%"},
      {"measurement": "kinase still bound, per cent of control", "setting": "PIK3C2B (human)", "value": 85, "unit": "%"},
      {"measurement": "kinase still bound, per cent of control", "setting": "WEE2 (human)", "value": 65, "unit": "%"},
      {"measurement": "kinase still bound, per cent of control", "setting": "MAPK14 (human)", "value": 100, "unit": "%"},
      {"measurement": "kinase still bound, per cent of control", "setting": "DDR2 (human)", "value": 100, "unit": "%"},
      {"measurement": "kinase still bound, per cent of control", "setting": "BMP2K (human)", "value": 68, "unit": "%"},
      {"measurement": "kinase still bound, per cent of control", "setting": "MET (human)", "value": 100, "unit": "%"},
      {"measurement": "kinase still bound, per cent of control", "setting": "[2]", "value": 96, "unit": "%"},
      {"measurement": "kinase still bound, per cent of control", "setting": "ACVRL1 (human)", "value": 100, "unit": "%"},
      {"measurement": "kinase still bound, per cent of control", "setting": "ROCK1 (human)", "value": 100, "unit": "%"},
      {"measurement": "kinase still bound, per cent of control", "setting": "EIF2AK2 (human)", "value": 72, "unit": "%"},
      {"measurement": "kinase still bound, per cent of control", "setting": "LATS2 (human)", "value": 100, "unit": "%"},
      {"measurement": "kinase still bound, per cent of control", "setting": "CDK19 (human)", "value": 0.8, "unit": "%"},
      {"measurement": "kinase still bound, per cent of control", "setting": "PTK2 (human)", "value": 88, "unit": "%"},
      {"measurement": "kinase still bound, per cent of control", "setting": "INSRR (human)", "value": 97, "unit": "%"},
      {"measurement": "kinase still bound, per cent of control", "setting": "WEE1 (human)", "value": 88, "unit": "%"},
      {"measurement": "kinase still bound, per cent of control", "setting": "MAPK9 (human)", "value": 97, "unit": "%"},
      {"measurement": "kinase still bound, per cent of control", "setting": "PRKCD (human)", "value": 91, "unit": "%"},
      {"measurement": "kinase still bound, per cent of control", "setting": "[3]", "value": 100, "unit": "%"},
      {"measurement": "kinase still bound, per cent of control", "setting": "[4]", "value": 86, "unit": "%"},
      {"measurement": "kinase still bound, per cent of control", "setting": "MAPK12 (human)", "value": 100, "unit": "%"},
      {"measurement": "kinase still bound, per cent of control", "setting": "MAP3K13 (human)", "value": 100, "unit": "%"},
      {"measurement": "kinase still bound, per cent of control", "setting": "RPS6KA1 KD2 (human)", "value": 88, "unit": "%"},
      {"measurement": "kinase still bound, per cent of control", "setting": "IKBKE (human)", "value": 100, "unit": "%"},
      {"measurement": "kinase still bound, per cent of control", "setting": "PAK3 (human)", "value": 100, "unit": "%"},
      {"measurement": "kinase still bound, per cent of control", "setting": "SIK1 (human)", "value": 100, "unit": "%"},
      {"measurement": "kinase still bound, per cent of control", "setting": "CDK18 (human)", "value": 97, "unit": "%"},
      {"measurement": "kinase still bound, per cent of control", "setting": "PLK3 (human)", "value": 80, "unit": "%"},
      {"measurement": "kinase still bound, per cent of control", "setting": "CASK (human)", "value": 100, "unit": "%"},
      {"measurement": "kinase still bound, per cent of control", "setting": "STK33 (human)", "value": 96, "unit": "%"},
      {"measurement": "kinase still bound, per cent of control", "setting": "PKMYT1 (human)", "value": 100, "unit": "%"},
      {"measurement": "kinase still bound, per cent of control", "setting": "CDC42BPG (human)", "value": 92, "unit": "%"},
      {"measurement": "kinase still bound, per cent of control", "setting": "CAMK1G (human)", "value": 86, "unit": "%"},
      {"measurement": "kinase still bound, per cent of control", "setting": "RPS6KA2 KD2 (human)", "value": 85, "unit": "%"},
      {"measurement": "kinase still bound, per cent of control", "setting": "ROS1 (human)", "value": 95, "unit": "%"},
      {"measurement": "kinase still bound, per cent of control", "setting": "CDKL5 (human)", "value": 100, "unit": "%"}
    ]}
  ]
}
